According to patent US20200017495A1, “NOVEL HETEROCYCLIC COMPOUNDS AND THEIR USE IN PREVENTING OR TREATING BACTERIAL INFECTIONS” (priority 2017, published 2020):
Like-named read-outs stand apart in the source and are kept apart here.

Legend:
Assay in all cases: MIC of compounds alone and combined with antibacterials, broth microdilution (CLSI)
Type in all cases: cell-based
[1] = tested on: Escherichia coli (ECO) isolates
Procedure, shortened: (§1)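 Antibacterial MICs in combination were determined at every compound concentration tested, alongside compound MICs alone. Bacteria grew in cation-adjusted Mueller-Hinton broth starting from 5.10^5 CFU/mL, incubated at 35° C for 16-20 h, and endpoints were the lowest concentrations with no visible growth.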

[2] = tested on: Enterobacter cloacae (ECL) isolates
Procedure, shortened: as §1

[3] = tested on: Providencia rettgeri (PRE) isolates
Procedure, shortened: as §1

With `CC1(C)S[C@@H]2[C@H](NC(=O)[C@H](N)c3ccc(O)cc3)C(=O)N2[C@H]1C(=O)O` [AMX, Amoxicillin] the MIC ([1]; strain ECO UFR174, genotype TEM-1, KPC-2, OXA-1) was greater than 128 µg/mL, the MIC ([1]; strain ECO UFR175, genotype TEM-1, KPC-2, OXA-9) was greater than 128 µg/mL and the MIC ([1]; strain ECO UFR176, genotype KPC-3, OXA-9*) was greater than 128 µg/mL. The MIC ([1]; strain ECO UFR177, genotype TEM-1, CTX-M-15, OXA-1, OXA-2, NDM-1, RmtC, antibiotic alone) was greater than 128 µg/mL, the MIC ([1]; strain ECO UFR178, genotype TEM-1, CTX-M-15, OXA-9, NDM-1, antibiotic alone) was greater than 128 µg/mL and the MIC ([1]; strain ECO UFR179, genotype TEM-1, SHV-12, CTX-M-15, NDM-1, antibiotic alone) was greater than 128 µg/mL. The MIC ([1]; strain ECO UFR180, genotype TEM-1, CMY-30, OXA-1, NDM-1, antibiotic alone) was greater than 128 µg/mL, the MIC ([1]; strain ECO UFR181, genotype TEM-1, CTX-M-15, NDM-5, antibiotic alone) was greater than 128 µg/mL and the MIC ([1]; strain ECO UFR182, genotype CTX-M-15, OXA-1, NDM-6, antibiotic alone) was greater than 128 µg/mL. It also gave an MIC ([1]; strain ECO UFR183, genotype CTX-M-15, OXA-1, NDM-7, antibiotic alone) greater than 128 µg/mL, an MIC ([1]; strain ECO UFR184, genotype CTX-M-15, CMY-4, OXA-1, OXA-204) greater than 128 µg/mL and an MIC ([1]; strain ECO UFR185, genotype OXA-48) greater than 128 µg/mL. It also gave an MIC ([1]; strain ECO UFR186, genotype TEM-1, CTX-M-14, OXA-48) greater than 128 µg/mL, an MIC ([1]; strain ECO UFR187, genotype CTX-M-15, OXA-48) greater than 128 µg/mL and an MIC ([1]; strain ECO UFR189, genotype TEM-1, CTX-M-15, OXA-48) greater than 128 µg/mL. The MIC ([1]; strain ECO UFR190, genotype CTX-M-24, OXA-48) was greater than 128 µg/mL, the MIC ([1]; strain ECO UFR191, genotype TEM-1, CTX-M-24, OXA-48) was greater than 128 µg/mL and the MIC ([1]; strain ECO UFR204, genotype TEM-1, CMY-4, OXA-48, VIM-1, antibiotic alone) was greater than 128 µg/mL. The MIC ([1]; strain ECO UFR205, genotype CTX-M-15, VIM-4, antibiotic alone) was greater than 128 µg/mL, the MIC ([1]; strain ECO UFR206, genotype TEM-1, CTX-M-15, OXA-1, VIM-4, antibiotic alone) was greater than 128 µg/mL and the MIC ([1]; strain ECO UFR207, genotype CTX-M-15) was greater than 128 µg/mL. It also gave an MIC ([1]; strain ECO UFR208, genotype SHV-12) greater than 128 µg/mL, an MIC ([1]; strain ECO UFR209, genotype TEM-1, CTX-M-15) greater than 128 µg/mL and an MIC ([1]; strain ECO UFR210, genotype SHV-12) greater than 128 µg/mL. The MIC ([1]; strain ECO UFR211, genotype TEM-24) was greater than 128 µg/mL, the MIC ([1]; strain ECO UFR212, genotype CMY-2) was greater than 128 µg/mL and the MIC ([1]; strain ECO UFR218, genotype TEM-1, SHV-1, CTX-M-15) was greater than 128 µg/mL. The MIC ([1]; strain ECO UFR252GO, genotype VIM-2, antibiotic alone) was greater than 128 µg/mL, the MIC ([1]; strain ECO UFR255, genotype NDM-1, antibiotic alone) was greater than 128 µg/mL and the “MIC ATB in combination” value [2] was greater than 128 µg/mL. For the same molecule, the “MIC ATB in combination” value ([2]; ECL 190408, AF2 @ 8 μg/mL) was “<=0.25 μg/mL”, the “MIC ATB in combination” value ([2]; ECL 200322, AF2 @ 8 μg/mL) was less than 0.25 µg/mL and the “MIC ATB in combination” value ([2]; ECL 260253, AF2 @ 8 μg/mL) was less than 0.25 µg/mL. For the same molecule, the “MIC ATB in combination” value ([2]; ECL 260323, AF2 @ 8 μg/mL) was less than 0.25 µg/mL, the “MIC ATB in combination” value ([2]; ECL 260508, AF2 @ 8 μg/mL) was less than 0.25 µg/mL and the “MIC ATB in combination” value ([2]; ECL P99, CLA @ 4 μg/mL) was greater than 512 µg/mL. For the same molecule, the “MIC ATB in combination” value ([2]; ECL UFR12, AF2 @ 8 μg/mL) was less than 0.25 µg/mL, the “MIC ATB in combination” value ([2]; ECL UFR38, AF2 @ 8 μg/mL) was “<=0.25 μg/mL” and the “MIC ATB in combination” value ([2]; ECL UFR51, AF2 @ 8 μg/mL) was less than 0.25 µg/mL. For the same molecule, the “MIC ATB in combination” value ([2]; ECL UFR70, AF2 @ 8 μg/mL) was 0.5 µg/mL, the “MIC ATB in combination” value ([2]; ECL UFR85, AF2 @ 8 μg/mL) was less than 0.25 µg/mL and the MIC ([2]; strain ECL 2185D, genotype OXA-163) was greater than 256 µg/mL. The MIC ([2]; strain ECL 190310, genotype AmpC) was greater than 256 µg/mL, the MIC ([2]; strain ECL 190408, genotype TEM-1, CTX-M-15, OXA-1) was greater than 256 µg/mL and the MIC ([2]; strain ECL 200138, genotype AmpC) was greater than 256 µg/mL. For the same molecule, the MIC ([2]; strain ECL 200322, genotype TEM-1, CTX-M-15, OXA-1) was greater than 256 µg/mL, the MIC ([2]; strain ECL 260033, genotype AmpC) was greater than 256 µg/mL and the MIC ([2]; strain ECL 260253, genotype TEM-1, KPC-3) was greater than 256 µg/mL. The MIC ([2]; strain ECL 260323, genotype AmpC) was greater than 256 µg/mL, the MIC ([2]; strain ECL 260508, genotype TEM-1, CTX-M-15) was greater than 256 µg/mL and the MIC ([2]; strain ECL HAN, genotype OXA-35) was greater than 256 µg/mL. It also gave an MIC ([2]; strain ECL NEM146383, genotype AmpC) greater than 256 µg/mL, an MIC ([2]; strain ECL P99, genotype AmpC) greater than 1024 µg/mL and an MIC ([2]; strain ECL UFR12, genotype CTX-M-9, OXA-48) greater than 256 µg/mL. It also gave an MIC ([2]; strain ECL UFR13, genotype TEM-1, SHV-12, CTX-M-9, OXA-48) greater than 256 µg/mL, an MIC ([2]; strain ECL UFR14, genotype TEM-1, SHV-12, CTX-M-15, DHA-1, OXA-1, OXA-48) greater than 256 µg/mL and an MIC ([2]; strain ECL UFR38, genotype CTX-M-15, NDM-1) greater than 256 µg/mL. The MIC ([2]; strain ECL UFR51, genotype SHV-12, IMP-8) was greater than 256 µg/mL, the MIC ([2]; strain ECL UFR60, genotype TEM-1, CTX-M-15, KPC-2) was greater than 256 µg/mL and the MIC ([2]; strain ECL UFR70, genotype TEM-1, CTX-M-15, CMY-2, OXA-1, Porin loss) was greater than 256 µg/mL. It also gave an MIC ([2]; strain ECL UFR84, genotype TEM-1, AmpC, OXA-1) greater than 256 µg/mL, an MIC ([2]; strain ECL UFR85, genotype TEM-1, CTX-M-15, AmpC) greater than 256 µg/mL and an MIC ([2]; strain ECL UFR192, genotype TEM-1, NDM-1, antibiotic alone) greater than 128 µg/mL. The MIC ([2]; strain ECL UFR193, genotype TEM-1, CTX-M-15, OXA-1, NDM-1, RmtC, antibiotic alone) was greater than 128 µg/mL, the MIC ([2]; strain ECL UFR194, genotype OXA-48) was greater than 128 µg/mL and the MIC ([2]; strain ECL UFR195, genotype TEM-1, CTX-M-15, OXA-1, OXA-48) was greater than 128 µg/mL. For the same molecule, the MIC ([2]; strain ECL UFR196, genotype TEM-1, CTX-M-15, OXA-1, OXA-48) was greater than 128 µg/mL, the MIC ([2]; strain ECL UFR197, genotype TEM-1, CTX-M-15, OXA-1, OXA-48) was greater than 128 µg/mL and the MIC ([2]; strain ECL UFR198, genotype TEM-1, SHV-12, CTX-M-15, DHA-1, OXA-1, OXA-48) was greater than 128 µg/mL. The MIC ([2]; strain ECL UFR200, genotype TEM-1, SHV-12, KPC-2) was greater than 128 µg/mL, the MIC ([2]; strain ECL UFR203, genotype TEM-1, SHV-12, VIM-1, antibiotic alone) was greater than 128 µg/mL and the MIC ([2]; strain ECL UFR214, genotype TEM-1, SHV-31, CTX-M-15, VIM-4, antibiotic alone) was greater than 128 µg/mL. For the same molecule, the MIC ([2]; strain ECL UFR252PT, genotype VIM-2, antibiotic alone) was greater than 128 µg/mL, the “MIC ATB in combination” value [3] was greater than 128 µg/mL and the MIC ([3]; strain PRE UFR96, genotype CTX-M-15, NDM-1) was greater than 128 µg/mL. The MIC ([3]; strain PRE UFR97, genotype TEM-1, NDM-1) was greater than 128 µg/mL, the MIC ([3]; strain PRE UFR99, genotype OXA-1, OXA-181) was greater than 128 µg/mL and the MIC ([3]; strain PRE UFR236, genotype TEM-1, OXA-48) was greater than 128 µg/mL.
